Test results: patent US20240066136A1, “MODIFIED PROTEINS AND PROTEIN DEGRADERS” (Cullgen (Shanghai), Inc., priority 2020, published 2024)

molecular target: Human DDB1 (Homo sapiens (Human), UniProt Q16531); experiment: Surface plasmon resonance (SPR) binding assay to immobilized His-DDB1; conditions: SPR, DDB1 binding moieties with linkers and/or target protein binding moiety; read-out: Binding (Kd)
Outline: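 Baculovirus-expressed His-DDB1 (High5 cells) amine-coupled to 11,000–13,000 RU on a CM5 chip; compounds injected in multi-cycle format without regeneration at 25° C in HBS-EP pH 7.4 (120 s association/dissociation). Double-referenced, solvent-corrected data fit to steady-state affinity model for KD.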

Human DDB1, sequence (Q16531 whole entry): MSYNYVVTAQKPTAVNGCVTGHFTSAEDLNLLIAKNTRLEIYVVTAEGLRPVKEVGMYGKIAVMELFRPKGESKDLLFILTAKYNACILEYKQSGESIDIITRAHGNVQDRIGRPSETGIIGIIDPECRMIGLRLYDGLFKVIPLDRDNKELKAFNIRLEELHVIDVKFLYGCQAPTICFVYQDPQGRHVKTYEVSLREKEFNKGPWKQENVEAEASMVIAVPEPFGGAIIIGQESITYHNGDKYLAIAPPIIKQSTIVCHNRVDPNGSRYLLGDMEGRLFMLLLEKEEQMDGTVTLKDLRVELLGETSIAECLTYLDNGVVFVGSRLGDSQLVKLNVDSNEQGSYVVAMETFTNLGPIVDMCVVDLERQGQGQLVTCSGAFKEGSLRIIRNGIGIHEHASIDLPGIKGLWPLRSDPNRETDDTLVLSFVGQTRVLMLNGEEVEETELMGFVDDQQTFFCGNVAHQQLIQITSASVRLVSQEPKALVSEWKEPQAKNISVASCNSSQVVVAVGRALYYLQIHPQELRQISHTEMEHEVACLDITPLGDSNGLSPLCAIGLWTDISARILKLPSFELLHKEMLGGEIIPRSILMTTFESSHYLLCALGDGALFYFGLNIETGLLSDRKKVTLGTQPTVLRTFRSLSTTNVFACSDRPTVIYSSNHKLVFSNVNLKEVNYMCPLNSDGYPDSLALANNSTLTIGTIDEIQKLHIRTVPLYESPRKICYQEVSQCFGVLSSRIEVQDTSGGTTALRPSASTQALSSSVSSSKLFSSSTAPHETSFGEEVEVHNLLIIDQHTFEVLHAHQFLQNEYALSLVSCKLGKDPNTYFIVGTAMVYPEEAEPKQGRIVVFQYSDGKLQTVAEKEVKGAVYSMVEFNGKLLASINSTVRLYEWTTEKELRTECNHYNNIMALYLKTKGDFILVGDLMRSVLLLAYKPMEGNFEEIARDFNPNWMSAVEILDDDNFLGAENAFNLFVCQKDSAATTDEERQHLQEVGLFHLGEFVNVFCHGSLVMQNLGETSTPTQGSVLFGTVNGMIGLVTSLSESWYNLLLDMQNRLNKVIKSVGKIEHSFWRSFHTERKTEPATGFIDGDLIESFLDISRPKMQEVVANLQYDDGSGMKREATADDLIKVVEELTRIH

Kd | SMILES
< 20 µM | CC(=O)Nc1cc(NCCOCCOCCOCCOCCNC(=O)CN2CCN(c3ccc(Nc4ncc5c(C)c(C(C)=O)c(=O)n(C6CCCC6)c5n4)nc3)CC2)ccc1C(=O)Nc1nc(C)c([N+](=O)[O-])s1 [D-47, 2-Acetamido-4-((1-(4-(6-((6-acetyl-8-cyclopentyl-5-methyl-7-oxo-7,8-dihydropyrido[2,3-d]pyrimidin-2-yl)amino)pyridin-3-yl)piperazin-1-yl)-2-oxo-6,9,12,15-tetraoxa-3-azaheptadecan-17-yl)amino)-N-(4-methyl-5-nitrothiazol-2-yl)benzamide]
< 20 µM | Cc1nc(NC(=O)c2ccccc2NC(=O)CCCCCN)sc1[N+](=O)[O-] [BL-1, 2-(6-Aminohexanamido)-N-(4-methyl-5-nitrothiazol-2-yl)benzamide]
20 to 100 µM | NCCOCCOCCOCCC(=O)Nc1ccccc1C(=O)Nc1ncc([N+](=O)[O-])s1 [BL-3, 2-(3-(2-(2-(2-Aminoethoxy)ethoxy)ethoxy)propanamido)-N-(5-nitrothiazol-2-yl)benzamide]
20 to 100 µM | CC(=O)Nc1cc(NCCCCCCCN)ccc1C(=O)Nc1nc(C)c([N+](=O)[O-])s1 [BL-7, 2-Acetamido-4-((7-aminoheptyl)amino)-N-(4-methyl-5-nitrothiazol-2-yl)benzamide]
20 to 100 µM | CC(=O)Nc1cc(NCCOCCNC(=O)CN2CCC(n3nc(N4CCCc5cc(-c6cnn(C)c6)c(C(F)F)cc54)c4c3CCN(C(C)=O)C4)CC2)ccc1C(=O)Nc1nc(C)c([N+](=O)[O-])s1 [D-7, 2-Acetamido-4-((2-(2-(2-(4-(5-acetyl-3-(7-(difluoromethyl)-6-(1-methyl-1H-pyrazol-4-yl)-3,4-dihydroquinolin-1 (2H)-yl)-4,5,6,7-tetrahydro-1H-pyrazolo[4,3-c]pyridin-1-yl)piperidin-1-yl)acetamido)ethoxy)ethyl)amino)-N-(4-methyl-5-nitrothiazol-2-yl)benzamide]
20 to 100 µM | CC(=O)Nc1cc(NCCOCCOCCOCCOCCNC(=O)CN2CCN(c3cccc(-c4cnc5ccc(N6CCC[C@@H]6c6cccc(F)c6)nn45)n3)CC2)ccc1C(=O)Nc1nc(C)c([N+](=O)[O-])s1 [D-23, (R)-2-Acetamido-4-((1-(4-(6-(6-(2-(3-fluorophenyl)pyrrolidin-1-yl)imidazo[1,2-b]pyridazin-3-yl)pyridin-2-yl)piperazin-1-yl)-2-oxo-6,9,12,15-tetraoxa-3-azaheptadecan-17-yl)amino)-N-(4-methyl-5-nitrothiazol-2-yl)benzamide]
20 to 100 µM | CC(=O)Nc1cc(NCCOCCOCCOCCOCCNC(=O)C[C@@H]2N=C(c3ccc(Cl)cc3)c3c(sc(C)c3C)-n3c(C)nnc32)ccc1C(=O)Nc1nc(C)c([N+](=O)[O-])s1 [D-35, (S)-2-Acetamido-4-((1-(4-(4-chlorophenyl)-2,3,9-trimethyl-6H-thieno[3,2-f][1,2,4]triazolo[4,3-a][1,4]diazepin-6-yl)-2-oxo-6,9,12,15-tetraoxa-3-azaheptadecan-17-yl)amino)-N-(4-methyl-5-nitrothiazol-2-yl)benzamide]

same assay, conditions: SPR, steady state affinity model, 25° C.; read-out: Binding (DDB1 binder activities, Kd)

Kd | SMILES
> 100 µM | Cc1cc(C#N)ccc1C(=O)Nc1ncc([N+](=O)[O-])s1 [B-151, 4-Cyano-2-methyl-N-(5-nitrothiazol-2-yl)benzamide]
20 to 100 µM | CCCCNc1ccc(C(=O)Nc2nc(C)c([N+](=O)[O-])s2)c(-c2ccccc2)c1 [B-111, 5-(Butylamino)-N-(4-methyl-5-nitrothiazol-2-yl)-[1,1′-biphenyl]-2-carboxamide]
20 to 100 µM | CC(=O)Nc1ccccc1C(=O)Nc1ccc(Cl)cc1 [B-58, 2-Acetamido-N-(4-chlorophenyl)benzamide]
> 100 µM | O=C(Nc1ccccc1C(=O)Nc1ncc([N+](=O)[O-])s1)c1ccccc1 [B-63, 2-Benzamido-N-(5-nitrothiazol-2-yl)benzamide]
< 20 µM | Cc1ccc(C)c(C(=O)Nc2ncc([N+](=O)[O-])s2)c1 [B-174, 2,5-Dimethyl-N-(5-nitrothiazol-2-yl)benzamide]
> 100 µM | CC(=O)Nc1ccccc1C(=O)Nc1ccc(-c2ccccc2)s1 [B-130, 2-Acetamido-N-(5-phenylthiophen-2-yl)benzamide]
> 100 µM | CCCCNc1ccc(C(=O)Nc2nc(C3CC3)c([N+](=O)[O-])s2)c(-c2ccccc2)c1 [B-115, 5-(Butylamino)-N-(4-cyclopropyl-5-nitrothiazol-2-yl)-[1,1′-biphenyl]-2-carboxamide]
> 100 µM | CCCCNc1ccc(C(=O)Nc2ccc([N+](=O)[O-])s2)c(C(C)C)c1 [B-134, 4-(Butylamino)-2-isopropyl-N-(5-nitrothiophen-2-yl)benzamide]
20 to 100 µM | CC(=O)Nc1ccccc1C(=O)Nc1ccc([N+](=O)[O-])cn1 [B-53, 2-Acetamido-N-(5-nitropyridin-2-yl)benzamide]
< 20 µM | CCCCNc1ccc(C(=O)Nc2nc(-c3ccccc3)c([N+](=O)[O-])s2)c(-c2ccccc2)c1 [B-131, 5-(Butylamino)-N-(5-nitro-4-phenylthiazol-2-yl)-[1,1′-biphenyl]-2-carboxamide]
20 to 100 µM | CC(=O)Nc1ccccc1C(=O)Nc1ccncc1 [B-121, 2-Acetamido-N-(pyridin-4-yl)benzamide]
< 20 µM | CC(=O)Nc1ccccc1C(=O)Nc1ncc(-c2ccccc2)s1 [B-45, 2-acetamido-N-(5-phenylthiazol-2-yl)benzamide]
< 20 µM | CC(C)Nc1ccccc1C(=O)Nc1ncc([N+](=O)[O-])s1 [B-70, 2-(Isopropylamino)-N-(5-nitrothiazol-2-yl)benzamide]
< 20 µM | CC(=O)Nc1ccccc1C(=O)Nc1ccccn1 [B-123, 2-Acetamido-N-(pyridin-2-yl)benzamide]
20 to 100 µM | CNc1ccc(C(=O)Nc2ncc([N+](=O)[O-])s2)c(C)c1 [B-166, 2-Methyl-4-(methylamino)-N-(5-nitrothiazol-2-yl)benzamide]
< 20 µM | CCNc1ccccc1C(=O)Nc1ncc([N+](=O)[O-])s1 [B-6]

Kd | SMILES
20 to 100 µM | CC(=O)Nc1ccccc1C(=O)Nc1nc(Br)c([N+](=O)[O-])s1 [B-30, 2-acetamido-N-(4-bromo-5-nitrothiazol-2-yl)benzamide]
< 20 µM | CC(=O)Nc1ccccc1C(=O)Nc1ncc([N+](=O)[O-])s1 [B-4, 2-Acetamido-N-(5-nitrothiazol-2-yl)benzamide]
< 20 µM | CC(=O)Nc1ccccc1C(=O)Nc1nc(-c2ccccc2)c([N+](=O)[O-])s1 [B-34, 2-acetamido-N-(5-nitro-4-phenylthiazol-2-yl)benzamide]
> 100 µM | CCCCNc1ccc(OCC)c(C(=O)Nc2ncc([N+](=O)[O-])s2)c1 [B-155, 5-(Butylamino)-2-ethoxy-N-(5-nitrothiazol-2-yl)benzamide]
20 to 100 µM | CNC(=O)c1ccc(-c2cccc(O)c2)nc1NCC1CC1 [B-143, 2-((cyclopropylmethyl)amino)-6-(3-hydroxyphenyl)-N-methylnicotinamide]
> 100 µM | O=C(Nc1ncc([N+](=O)[O-])s1)c1ccccc1OC1CC1 [B-75, 2-Cyclopropoxy-N-(5-nitrothiazol-2-yl)benzamide]
20 to 100 µM | CCCC(=O)Nc1cccc(OC(C)=O)c1C(=O)Nc1ncc([N+](=O)[O-])s1 [B-23, 3-Butyramido-2-((5-nitrothiazol-2-yl)carbamoyl)phenyl acetate]
20 to 100 µM | CC(C)C(=O)NCCC1CN(Cc2cccc3[nH]ccc23)Cc2ccnn21 (centres unmarked) [B-142, N-(2-(5-((1H-indol-4-yl)methyl)-4,5,6,7-tetrahydropyrazolo[1,5-a]pyrazin-7-yl)ethyl)isobutyramide]
20 to 100 µM | CC(=O)Oc1cc(NC2CCOCC2)ccc1C(=O)Nc1ncc([N+](=O)[O-])s1 [B-96, 2-((5-Nitrothiazol-2-yl)carbamoyl)-5-((tetrahydro-2H-pyran-4-yl)amino)phenyl acetate]
20 to 100 µM | CCc1nnc(CNC(=O)c2ccccc2C2CCNC2)s1 (centres unmarked) [B-141, N-((5-ethyl-1,3,4-thiadiazol-2-yl)methyl)-2-(pyrrolidin-3-yl)benzamide]
20 to 100 µM | CCCNC(=O)c1cccc(C(=O)Nc2ncc([N+](=O)[O-])s2)c1OC(C)=O [B-11, 2-((5-Nitrothiazol-2-yl)carbamoyl)-6-(propylcarbamoyl)phenyl acetate]
> 100 µM | CC(=O)Nc1ccccc1C(=O)Nc1cccnc1 [B-122, 2-Acetamido-N-(pyridin-3-yl)benzamide]
20 to 100 µM | CCCC(=O)Nc1cccc(OC(=O)CCC)c1C(=O)Nc1ncc([N+](=O)[O-])s1 [B-25, 3-Butyramido-2-((5-nitrothiazol-2-yl)carbamoyl)phenyl butyrate]
20 to 100 µM | CC(=O)Nc1ccccc1C(=O)Nc1nc(C(F)(F)F)c([N+](=O)[O-])s1 [B-31, 2-Acetamido-N-(5-nitro-4-(trifluoromethyl)thiazol-2-yl)benzamide]
20 to 100 µM | O=C(Nc1ncc(Cl)s1)c1ccccc1O [B-10]
20 to 100 µM | CC(=O)Nc1ccccc1C(=O)Nc1ncc(C)s1 [B-42, 2-Acetamido-N-(5-methylthiazol-2-yl)benzamide]

SMILES | Kd
CC(=O)Oc1ccccc1C(=O)Nc1ncc([N+](=O)[O-])s1 [B-1, 2-((5-nitrothiazol-2-yl)carbamoyl)phenylacetate] | 20 to 100 µM
CC(C)COc1ccccc1C(=O)N(C)c1ncc([N+](=O)[O-])s1 [B-103, 2-Isobutoxy-N-methyl-N-(5-nitrothiazol-2-yl)benzamide] | 20 to 100 µM
